Results reported in ChEMBL document CHEMBL4483862, “Open-source discovery of chemical leads for next-generation chemoprotective antimalarials” (2018).

Tested on: Plasmodium berghei
Assay: Luciferase/luciferin-expressing antifolate-resistant parasites were used to infect a culture of HepG2 cells that were pre-incubated with compounds. Infected hepatocytes emit light due to the luciferase reaction. Assay results are presented as the percent inhibition of light emission compared to control. […]
Type: functional
Settings: sporozoite; for IC90: read-out: LUCIFERASE INFECTION ASSAY - IC90
[1] = read-out: LUCIFERASE INFECTION ASSAY - IC50

| Structure (SMILES) | IC90 [µM] | further results |
| --- | --- | --- |
| COc1ccc(-[n+]2c(-c3ccc(Br)cc3)cn3c2CCc2ccccc2-3)cc1 | 3.77 | IC50 (HEPG2TOX_HILL_SLOPE 3.09, HEPG2TOX_R_SQUARED 0.93, PBLUC_HILL_SLOPE 14.3, PBLUC_R_SQUARED 0.689, read-out: LUCIFERASE INFECTION ASSAY - IC50): 3.23 µM |
| COCOc1ccc(-c2cc(-c3cccc4cccnc34)cnc2N)cc1 | > 9.23 | IC50 (HEPG2TOX_HILL_SLOPE 2.28, HEPG2TOX_R_SQUARED 0.55, PBLUC_HILL_SLOPE 1.41, PBLUC_R_SQUARED 0.714, read-out: LUCIFERASE INFECTION ASSAY - IC50): 3.26 µM |
| O=C(NC1CC1)c1ccc(-c2cnc3cnc(-c4ccsc4)cn23)cc1 | > 9.16 | IC50 (HEPG2TOX_HILL_SLOPE 0.0389, HEPG2TOX_R_SQUARED 0.0745, PBLUC_HILL_SLOPE 3.06, PBLUC_R_SQUARED 0.597, read-out: LUCIFERASE INFECTION ASSAY - IC50): 7.19 µM |
| Cn1ccc2cc(-c3cn4c(-c5ccccc5)cnc4cn3)ccc21 | 2.78 | IC50 (HEPG2TOX_HILL_SLOPE 1.3, HEPG2TOX_R_SQUARED 0.937, PBLUC_HILL_SLOPE 1.56, PBLUC_R_SQUARED 0.678, read-out: LUCIFERASE INFECTION ASSAY - IC50): 0.679 µM |
| CC(=O)Nc1ccc(-c2cnc3ccc(-c4ccccc4)nn23)cc1 | 3.8 | IC50 (HEPG2TOX_HILL_SLOPE 2.97, HEPG2TOX_R_SQUARED 0.938, PBLUC_HILL_SLOPE 2.21, PBLUC_R_SQUARED 0.595, read-out: LUCIFERASE INFECTION ASSAY - IC50): 1.4 µM |
| Cc1cccc(Nc2ccccc2C(=O)OCC(=O)Nc2cccc(C#N)c2)c1C | > 10 | IC50 (HEPG2TOX_HILL_SLOPE 6.86, HEPG2TOX_R_SQUARED 0.37, PBLUC_HILL_SLOPE 1.78, PBLUC_R_SQUARED 0.801, read-out: LUCIFERASE INFECTION ASSAY - IC50): 3.16 µM |
| N=S(=O)(c1ccc(Cl)cc1)c1cccs1 (stereo not given) | > 12.8 | IC50 [1]: > 12.8 µM |
| CCOc1c(Br)cnn(-c2ccc(C)cc2)c1=O | > 10.7 | IC50 (HEPG2TOX_HILL_SLOPE 0.0619, HEPG2TOX_R_SQUARED 0.0842, PBLUC_HILL_SLOPE 9.69, PBLUC_R_SQUARED 0.342, read-out: LUCIFERASE INFECTION ASSAY - IC50): > 10.7 µM |
| CC(C)c1cccc(Nc2nnc(C(O)c3ccccc3Cl)s2)c1 (stereo not given) | > 10 | IC50 [1]: > 10 µM |
| O=C(CSc1ccccc1)Nc1nc2ccccn2c1C(=O)NC1CCCCC1 | > 8.08 | IC50 (HEPG2TOX_HILL_SLOPE 2.44, HEPG2TOX_R_SQUARED 0.782, PBLUC_HILL_SLOPE 1.51, PBLUC_R_SQUARED 0.873, read-out: LUCIFERASE INFECTION ASSAY - IC50): 2.83 µM |
| CCOc1ccc(C2(O)C(C)N3C(=[N+]2c2ccc(OC)cc2)CCc2ccccc23)cc1 (stereo not given) | > 10 | IC50 [1]: > 10 µM |
| O=C(CSc1nncn1C1CC1)Nc1sc2c(c1C(=O)Nc1ccc(Cl)cc1)CCCC2 | > 10 | IC50 [1]: > 10 µM |
| CC(C)NCC(=O)Nc1cccc2c1C(=O)c1ccccc1C2=O | > 10.2 | IC50 [1]: 8.29 µM |
| Oc1cccc(-c2cnc3cnc(-c4cccnc4)cn23)c1 | > 11.4 | IC50 (PBLUC_HILL_SLOPE 14.9, PBLUC_R_SQUARED 0.072, read-out: LUCIFERASE INFECTION ASSAY - IC50): 10.8 µM |
| Brc1ccc(-c2ccc(CN3CCNCC3)s2)cc1 | > 10 | IC50 (HEPG2TOX_HILL_SLOPE 2.72, HEPG2TOX_R_SQUARED 0.0418, read-out: LUCIFERASE INFECTION ASSAY - IC50): > 10 µM |
| COc1ccc(Cl)cc1C(=O)NNC(=O)c1oc2ccccc2c1CSC1CCCCC1 | > 10 | IC50 (FFLUC_HILL_SLOPE 11.7, FFLUC_R_SQUARED 0.493, read-out: LUCIFERASE INFECTION ASSAY - IC50): > 10 µM |
| CC(C)Cn1c(N)c(C(=O)COC(=O)Cn2c(C(F)(F)F)nc3ccccc32)c(=O)n(C)c1=O | > 10 | IC50 [1]: > 10 µM |
| CC(C)(C)Nc1ncnc2sc(-c3ccccc3)cc12 | > 10 | IC50 (PBLUC_HILL_SLOPE 1.75, PBLUC_R_SQUARED 0.697, read-out: LUCIFERASE INFECTION ASSAY - IC50): 4.97 µM |

| Structure (SMILES) | IC90 [µM] | further results |
| --- | --- | --- |
| Cc1cc(NC(=O)N2CCN(Cc3ccc(-c4ccccc4Cl)s3)CC2)no1 | > 10 | IC50 (HEPG2TOX_HILL_SLOPE 17.1, HEPG2TOX_R_SQUARED 0.65, PBLUC_HILL_SLOPE 0.759, PBLUC_R_SQUARED 0.724, read-out: LUCIFERASE INFECTION ASSAY - IC50): 1.19 µM |
| Fc1ccccc1-c1cnn2c(NCc3cccs3)ccnc12 | > 10.2 | IC50 (FFLUC_HILL_SLOPE 1.17, FFLUC_R_SQUARED 0.682, PBLUC_HILL_SLOPE 0.51, PBLUC_R_SQUARED 0.639, read-out: LUCIFERASE INFECTION ASSAY - IC50): 0.238 µM |
| Cn1c(NCc2ccccc2)nc2cnc(Nc3cccc(C(F)(F)F)c3)cc21 | > 10 | IC50 (PBLUC_HILL_SLOPE 1.17, PBLUC_R_SQUARED 0.452, read-out: LUCIFERASE INFECTION ASSAY - IC50): 4.08 µM |
| Cc1nc(-c2ccc(C(C)Nc3cnn(-c4ccccc4)c(=O)c3Cl)cc2)cs1 (stereo not given) | 5.07 | IC50 (HEPG2TOX_HILL_SLOPE 2.7, HEPG2TOX_R_SQUARED 0.839, PBLUC_HILL_SLOPE 8.17, PBLUC_R_SQUARED 0.802, read-out: LUCIFERASE INFECTION ASSAY - IC50): 3.88 µM |
| CC(C)(C)c1cc(-c2cc(C(F)(F)F)[nH]n2)c2c(c1)C(C)(C)CC2 | > 9.81 | IC50 (FFLUC_HILL_SLOPE 11.7, FFLUC_R_SQUARED 0.064, read-out: LUCIFERASE INFECTION ASSAY - IC50): > 9.81 µM |
| Cc1cc(-c2cn3c(-c4ccncc4)cnc3cn2)cc(C)c1O | 10 | IC50 (PBLUC_HILL_SLOPE 18.9, PBLUC_R_SQUARED 0.365, read-out: LUCIFERASE INFECTION ASSAY - IC50): 8.93 µM |
| COc1cccc(Nc2nccc3nc(-c4cccc(C(F)(F)F)c4)[nH]c23)c1 | > 10 | IC50 (PBLUC_HILL_SLOPE 2.33, PBLUC_R_SQUARED 0.497, read-out: LUCIFERASE INFECTION ASSAY - IC50): 4.16 µM |
| O=C(CNc1cc(C(F)(F)F)ccc1Oc1ccc(Br)cc1)NCCC1=CCCCC1 | > 10 | IC50 (FFLUC_HILL_SLOPE 3.47, FFLUC_R_SQUARED 0.173, PBLUC_HILL_SLOPE 15.8, PBLUC_R_SQUARED 0.057, read-out: LUCIFERASE INFECTION ASSAY - IC50): 9.79 µM |
| O=C(CCN1CCN(c2ccccc2)CC1)NNC(=O)c1ccc(C(F)(F)F)cn1 | 7.86 | IC50 (HEPG2TOX_HILL_SLOPE 7.92, HEPG2TOX_R_SQUARED 0.92, PBLUC_HILL_SLOPE 7.4, PBLUC_R_SQUARED 0.199, read-out: LUCIFERASE INFECTION ASSAY - IC50): 5.84 µM |
| Cc1cccc(Nc2nc(S(=O)(=O)c3ccc(Cl)cc3)c(Cl)s2)c1 | > 10 | IC50 (HEPG2TOX_HILL_SLOPE 2.2, HEPG2TOX_R_SQUARED 0.986, PBLUC_HILL_SLOPE 2.95, PBLUC_R_SQUARED 0.805, read-out: LUCIFERASE INFECTION ASSAY - IC50): 5.17 µM |
| O=C(NCc1ccc(Cn2cccn2)cc1)N1CCN(c2ccc(C(F)(F)F)cc2[N+](=O)[O-])CC1 | > 10 | IC50 [1]: > 10 µM |
| O=C(c1cnc(Nc2cccc(C(F)(F)F)c2)[nH]1)c1ccccc1F | > 9.45 | IC50 (PBLUC_HILL_SLOPE 15.7, PBLUC_R_SQUARED 0.709, read-out: LUCIFERASE INFECTION ASSAY - IC50): 9.07 µM |
| CC(C)(C)C(=O)Nc1ccc([N+](=O)[O-])cc1C#N | 4.31 | IC50 (PBLUC_HILL_SLOPE 2.44, PBLUC_R_SQUARED 0.671, read-out: LUCIFERASE INFECTION ASSAY - IC50): 1.75 µM |
| Cc1n[n+]2c3c(cnc2s1)CC/C3=C/c1ccccc1 | 9.79 | IC50 (HEPG2TOX_HILL_SLOPE 2.96, HEPG2TOX_R_SQUARED 0.5, PBLUC_HILL_SLOPE 7.3, PBLUC_R_SQUARED 0.698, read-out: LUCIFERASE INFECTION ASSAY - IC50): 7.25 µM |
| CC(NC(=O)COC(=O)COc1ccc2c(c1)CCC(=O)N2)c1ccco1 (stereo not given) | > 10 | IC50 [1]: > 10 µM |
| O=C(CSc1nnc(N2CCCC2)n1-c1ccccc1Cl)N1CCC(c2ccccc2)=N1 | > 10 | IC50 [1]: > 10 µM |
| COCCCNC(=O)Cc1ccc(S(=O)(=O)N2CCOCC2)s1 | > 10 | IC50 [1]: > 10 µM |
